Where two headings read alike, the source gives them in different places.
How the values were obtained:
[1] = biological target: T1, Aβ1–42 (Homo sapiens, UniProt P05067); assay: Inhibition of self-induced Aβ1–42 aggregation (Thioflavin T assay); assay type: biochemical; conditions: ThT fluorescence, 24 h incubation, read-out: Inhibitory rate of compounds (25 μM) on self-induced Aβ1-42 aggregation
T1 construct: aliquots of 2 μL of Aβ1–42 (AS-64129–05 Anaspec Inc.); purchased Anaspec Inc. AS-64129–05
Method: Inhibitory effects of the compounds on self-induced Aβ1–42 aggregation were tested through a Thioflavin T (ThT)-(T3516, Sigma-Aldrich) binding assay.
The calculation of the inhibitory rate of Aβ1–42 self-induced aggregation was performed as the following equation: (1 − IFi/IFc) × 100%. IFi and IFc were the fluorescence intensities measured in the presence and absence of inhibitors, respectively, after subtracting the background fluorescence of the 5 mM ThT solution. Each compound was measured in triplicate.
A thioflavin T-based fluorometric assay was performed.

[2] = system: scopolamine-induced cognition-impaired adult ICR mice; assay: Morris water maze in scopolamine-induced cognition-impaired mice; assay type: in vivo; conditions: 30 mg/kg oral, scopolamine 1 mg/kg i.p., mean ± SEM n = 6; for Latency to target: probe trial
Method: Behavioral studies were performed using the Morris water maze[25] according to our method reported previously. Adult male imprinting control region (ICR) mice (8–10 weeks old, weight 20–25 g) were obtained from the Yangzhou University Medical Center (Yangzhou, China). All animal handling and experimental protocols were approved by the Institutional Animal Care and Use Committee of the China Pharmaceutical University. Scopolamine hydrobromide was purchased from Aladdin Reagents (S107418, Shanghai, China).
A circular pool (120 cm in diameter, 60 cm height) which was fixed with an escape platform (10 cm diameter) and filled to a depth of 40 cm fresh water (kept at 25 °C) composed the water maze and this water maze placed in a lit room was used to evaluate the cognition function and memory capacity of mice according to our previously described method[24] . After five days of learning and memory training, a probe trial was performed on day 6. For the evaluation of cognitive function, each mouse was individually trained on a visible-platform (labeled by a small flag, 5 cm tall) for two days and was followed by a hidden-platform version (placed 1 cm below the surface of the water) of the water maze from day 3 to day 5. All mice were subjected to two training trials daily, each of which lasted for 90 s. The time for each mouse to find the platform (a successful escape) was recorded. […] On the last day (day 6), a probe trial was given to the mice in which the platform was removed from the pool and each mouse was allowed 90 s to search for the platform. The time the animals spent to reach the missing platform location and the number of times they crossed that location were recorded.
Data for the time of escape latency, the swimming trajectory, and the number of visual platform crossings were recorded by Panlab SMART 3.0 (Panlab, S.L.U, Spain) and GraphPad Prism 5 was used to evaluate the level of memory retention.

[3] = biological target: T2, BuChE (EC 3.1.1.8) from horse serum (Equus caballus, UniProt P81908); assay: biochemical; conditions: eqBuChE, mean ± SEM of triplicate independent experiments
T2 construct: BuChE (EC 3.1.1.8, from equine serum, C0663); purchased Sigma-Aldrich C0663; host or cells: equine serum (natural source)
Method: (§1) AChE (EC 3.1.1.7, Type VI-S, from electric eel, C3389) and BuChE (EC 3.1.1.8, from equine serum, C0663), 5,5’-dithiobis (2-nitrobenzoic acid) (DTNB, D218200), acetylthiocholine iodide (ATC, A5751) and butyrylthiocholine iodide (BTC, B3253) used as substrates were obtained from Sigma-Aldrich (St. Louis, MO).
(§2) The inhibitory capacity of the synthesised compounds on AChE and BuChE biological activity in this paper were evaluated according to our previously reported method. Briefly, AChE/BuChE stock solution was diluted with 0.2 M phosphate buffer pH 8.0 to give 2.5 units/mL (for electrophorus electricus (eeAChE) and equine serum (eqBuChE)). ATC/BTC iodide solution (0.075 M) was dissolved in deionized water. […] The assay solution was prepared as follows: potassium dihydrogen phosphate (1.36 g, 10 mmol) was dissolved in 100 ml of water. The pH of the solution was then adjusted to 8.0 ± 0.1 with KOH. Stock solutions of the test samples were dissolved in ethanol to give a final concentration of 10 − 4^ M when diluted to the final volume of 3.32 ml. For each compound, a dilution series of five different concentrations 10 − 5–10 − 9^9 M were prepared.
(§3) For measurement, a cuvette containing 3 mL of phosphate buffer, 100 μL of eeAChE or eqBuChE, 100 μL of DTNB, and 100 μL of the test compound solution was added in sequence. The reaction was initiated by adding 20 μL of ATC or BTC and the solution was mixed immediately. […] For the reference value, 100 μL of water was replaced for the test compound solution. For the blank control, additional 100 μL of water was also replaced for the enzyme solution. The measurement of each concentration was assayed in triplicate. GraphPad Prism 5 (GraphPad Software, Inc., La Jolla, CA) was used for data processing. The inhibition curve was fitted by plotting percentage enzyme activity (100% for the reference) versus the logarithm of test compound concentration. The half maximal inhibitory concentration (IC50) values were calculated according to the curve and the data were shown in mean ± SEM.
(§4) Inhibitory activities were presented as IC50 (nM).

[4] = biological target: T3, AChE (EC 3.1.1.7) from electric eel (Electrophorus electricus, UniProt O42275); assay: biochemical; conditions: for SI (selectivity index, AChE IC50/BuChE IC50): eeAChE IC50 / eqBuChE IC50; for IC50: eeAChE, mean ± SEM of triplicate independent experiments
T3 construct: AChE (EC 3.1.1.7, Type VI-S, from electric eel, C3389); purchased Sigma-Aldrich C3389; host or cells: electric eel (natural source)
Method: as §1, §2, §3, §4

[5] = system: adult male ICR mice; assay type: in vivo; conditions: mouse, in vivo
Method: . Heparinised serum was obtained from the retrobulbar plexus 8, 22, and 36 h after the administration and were subjected to hepatotoxicity evaluation. The activity of aspartate aminotransferase (AST) and alanine aminotransferase (ALT), two indicators of liver damage, was determined by a commercial assay kit (EF551 and EF550 for ALT, EH027 and EF548 for AST, Wako, Japan). The data were analysed by Biochemical Analyzer (HITACHI 7020, Japan).
Mice were sacrificed 1 h after the collection of retrobulbar blood and livers were removed for morphological studies by using the immunohistochemical method. Two 3 mm sections of each liver extending from the hilus to the margin of the left lateral lobe were isolated using ultra-thin semiautomatic microtome (Leica RM2245, Germany) and placed in 10% buffered formaldehyde immediately, fixed for two days, and embedded together in one paraffin block by using paraffin embedding station (Leica EG1150H, Germany). Subsequently, 5 μm sections were prepared from these paraffin blocks. They were deparaffinated and stained with hematoxylin and eosin (H&E) for histopathological examinations.

[6] = system: HepG2 cells; conditions: for Cell viability (% of vehicle): 24 h, MTT, mean ± SEM n = 3; for Antiproliferative activity on HepG2 cells (in words): MTT assay
Method: To determine the possible drug-induced hepatotoxicity, 10d and 10g were selected for preliminary hepatotoxicity evaluation. Heparinised serum was obtained after the treatment of the compounds at 8, 22, and 36 h, respectively. […] Additionally, immunohistochemical staining was performed on the liver tissues for the histopathological study.
Methods for Cell Viability Assay. The human hepatocellular HepG2 cells were […]
Cells were seeded into 96-well plates at a density of 3
37 °C for the following experiments. For cytotoxicity test, cells were treated with 0.05- […]
Cell viability was measured by 3-(4,5- dimethylthiazol-2-yl)-2,5-diphenyltetrazolium bromide (MTT) analysis. In brief, 15 µL of MTT was added into each well and incubated at 37 °C for 4 h. The […]
viability was calculated and presented by the percentage of vehicle-treated group.

T1 sequence (P05067 672-713): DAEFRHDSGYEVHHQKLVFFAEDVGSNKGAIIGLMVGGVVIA
T2 sequence (P81908 whole entry): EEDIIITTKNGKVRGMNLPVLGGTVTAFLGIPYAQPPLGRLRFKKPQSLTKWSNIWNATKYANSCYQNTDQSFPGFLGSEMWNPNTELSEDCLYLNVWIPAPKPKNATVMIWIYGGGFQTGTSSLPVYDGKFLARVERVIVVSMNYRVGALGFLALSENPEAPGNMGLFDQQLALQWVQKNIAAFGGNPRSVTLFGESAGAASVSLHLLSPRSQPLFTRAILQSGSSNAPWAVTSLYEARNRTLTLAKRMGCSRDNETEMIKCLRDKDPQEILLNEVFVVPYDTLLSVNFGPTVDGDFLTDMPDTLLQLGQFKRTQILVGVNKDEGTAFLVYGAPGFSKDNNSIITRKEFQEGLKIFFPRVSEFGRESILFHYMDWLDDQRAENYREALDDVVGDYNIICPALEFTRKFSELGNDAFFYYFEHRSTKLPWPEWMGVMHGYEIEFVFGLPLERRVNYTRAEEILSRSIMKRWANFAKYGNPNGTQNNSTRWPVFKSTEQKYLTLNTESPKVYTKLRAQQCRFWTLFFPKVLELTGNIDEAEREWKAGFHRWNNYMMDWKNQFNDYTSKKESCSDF
T3 sequence (O42275 24-633): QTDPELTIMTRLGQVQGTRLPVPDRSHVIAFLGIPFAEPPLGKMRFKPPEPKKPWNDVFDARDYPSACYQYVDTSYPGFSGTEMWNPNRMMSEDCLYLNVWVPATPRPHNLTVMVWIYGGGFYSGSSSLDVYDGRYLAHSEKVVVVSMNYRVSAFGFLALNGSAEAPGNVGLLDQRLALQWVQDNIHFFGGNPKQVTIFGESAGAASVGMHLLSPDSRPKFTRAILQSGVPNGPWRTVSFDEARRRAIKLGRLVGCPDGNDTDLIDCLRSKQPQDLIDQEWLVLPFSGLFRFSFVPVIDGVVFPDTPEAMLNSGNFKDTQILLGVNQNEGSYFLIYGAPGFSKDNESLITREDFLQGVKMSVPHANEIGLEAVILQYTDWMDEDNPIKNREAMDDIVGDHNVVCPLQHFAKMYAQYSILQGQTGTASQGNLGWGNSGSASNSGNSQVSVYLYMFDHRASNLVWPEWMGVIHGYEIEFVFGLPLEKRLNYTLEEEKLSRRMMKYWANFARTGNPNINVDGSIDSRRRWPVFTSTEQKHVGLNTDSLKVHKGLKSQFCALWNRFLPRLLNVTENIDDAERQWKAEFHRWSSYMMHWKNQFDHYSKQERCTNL

Row | SMILES | inhibition at 25 µM [1] | Distance to target [2] | Speed in virtual platform [2] | Latency to target [2] | IC50 [3] | SI (selectivity index, AChE IC50/BuChE IC50) [4] | IC50 [4] | Morphologic changes in liver (histopathology, HE staining) [5] | Cell viability (% of vehicle) ([6]; HepG2, 0.05 µM) | Cell viability (% of vehicle) ([6]; HepG2, 0.1 µM) | Cell viability (% of vehicle) ([6]; HepG2, 0.5 µM) | Cell viability (% of vehicle) ([6]; HepG2, 2.5 µM) | Cell viability (% of vehicle) ([6]; HepG2, 5 µM) | Cell viability (% of vehicle) ([6]; HepG2, 50 µM) | Antiproliferative activity on HepG2 cells (in words) [6]
1 | COc1cc(/C=C/C(=O)NCCNc2c3c(nc4ccccc24)CCCC3)ccc1OCc1ccc(Br)cc1 [Compound 10d, (E)-3–(4-((4-bromobenzyl)oxy)-3-methoxyphenyl)-N-(2-((1,2,3,4-tetrahydroacridin-9-yl)amino)ethyl)acrylamide] | 66.8% | 628.95 ± 87.55 cm | 18.82 ± 5.36 cm/s | 19.08 ± 2.56 s | 69.4 ± 13.4 nM | 0.7 | 49.5 ± 3.8 nM | did not cause adverse morphologic changes in liver | 129.7 ± 7.5 % of vehicle | 125.0 ± 2.3 % of vehicle | 125.6 ± 2.1 % of vehicle | 130.6 ± 2.2 % of vehicle | 13.2 ± 2.3 % of vehicle | 2.5 ± 0.3 % of vehicle | relatively strong toxic effects
2 | COc1cc(/C=C/C(=O)NCCNc2c3c(nc4ccccc24)CCCC3)ccc1OCc1ccc(C)c(C)c1 [Compound 10g, (E)-3–(4-((3,4-dimethylbenzyl)oxy)-3-methoxyphenyl)-N-(2-((1,2,3,4-tetrahydroacridin-9-yl)amino)ethyl)acrylamide] | 65.5% | 612.85 ± 81.54 cm | 17.27 ± 3.39 cm/s | 24.73 ± 3.54 s | 101 ± 15.5 nM | 0.4 | 37 nM | did not cause adverse morphologic changes in liver | 128.4 ± 5.6 % of vehicle | 124.6 ± 1.7 % of vehicle | 121.7 ± 3.5 % of vehicle | 128.9 ± 4.1 % of vehicle | 1.5 ± 0.1 % of vehicle | 1.9 ± 0.3 % of vehicle | relatively strong toxic effects
3 | COc1cc(/C=C/C(=O)NCCNc2c3c(nc4ccccc24)CCCC3)ccc1OCc1ccc(C#N)cc1 [Compound 10j, (E)-3–(4-((4-cyanobenzyl)oxy)-3-methoxyphenyl)-N-(2-((1,2,3,4-tetrahydroacridin-9-yl)amino)ethyl)acrylamide] | 49.5% |  |  |  | 79.8 ± 8.9 nM | 1.3 | 107 ± 29.9 nM |  |  |  |  |  |  |  | 
4 | Oc1ccc(/C=C/c2cc(O)cc(O)c2)cc1 [Resveratrol, reference compound] | 45.7% |  |  |  |  |  |  |  |  |  |  |  |  |  | 

Source: article PMC6010002, “Synthesis, pharmacology and molecular docking on multifunctional tacrine-ferulic acid hybrids as cholinesterase inhibitors against Alzheimer’s disease” (Journal of Enzyme Inhibition and Medicinal Chemistry, 2018)
